Data taken from ChEMBL document CHEMBL3885861, “Open TG-GATES”.

Organism: Rattus norvegicus
Test: Open TG-GATES - Regimen: Single
Type: toxicity, organism-based, Sprague-Dawley
Parameters: regimen Single, gender Male, age 6 weeks
Conditions: in vivo, po, 300 mg/kg, route gavage, dose level Middle; for APTT / Bas / Eos / Fbg / Hb / Ht / Lym / MCH / MCHC / MCV / Mono / Neu / PT / Plat / RBC / Ret / WBC: tissue Blood; for KIDNEY_L / KIDNEY_R / KIDNEY_TOTAL: tissue Kidney; for LIVER: tissue Liver; for A/G / ALP / ALT / AST / BUN / CRE / Ca / Cl / DBIL / GLC / IP / LDH / Na / PL / RALB / TBIL / TC / TG / TP / gamma-GTP: tissue Plasma

Structure (SMILES): NC(N)=Nc1nc(CSCCC(N)=NS(N)(=O)=O)cs1 [FAMOTIDINE]
- TERMINAL_BW (3 h): 215.2 g
- APTT (3 h): 21.3 s
- Bas (3 h): 0%
- Eos (3 h): 1%
- Fbg (3 h): 213.2 mg/dL
- Hb (3 h): 13.4 g/dL
- Ht (3 h): 37.9%
- Lym (3 h): 76.2%
- MCH (3 h): 22.4 pg
- MCHC (3 h): 35.3%
- MCV (3 h): 63.4 fL
- Mono (3 h): 2.8%
- Neu (3 h): 17.8%
- PT (3 h): 12.6 s
- Plat (3 h): 116.7 x10_4/uL
- RBC (3 h): 598 x10_4/ul
- Ret (3 h): 7.6%
- WBC (3 h): 82 x10_2/uL
- KIDNEY_L (3 h): 1 g
- KIDNEY_R (3 h): 1 g
- KIDNEY_TOTAL (3 h): 1.9 g
- LIVER (3 h): 10.1 g
- A/G (3 h): 1.6
- ALP (3 h): 814.6 IU/L
- ALT (3 h): 34.2 IU/L
- AST (3 h): 66.4 IU/L
- BUN (3 h): 9.6 mg/dL
- CRE (3 h): 0.4 mg/dL
- Ca (3 h): 10.6 mg/dL
- Cl (3 h): 104.2 meq/L
- DBIL (3 h): 0.07 mg/dL
- GLC (3 h): 197.8 mg/dL
- IP (3 h): 9 mg/dL
- LDH (3 h): 230 IU/L
- Na (3 h): 140.8 meq/L
- PL (3 h): 146 mg/dL
- RALB (3 h): 3.4 g/dL
- TBIL (3 h): 0.1 mg/dL
- TC (3 h): 77.2 mg/dL
- TG (3 h): 69.4 mg/dL
- TP (3 h): 5.5 g/dL
- gamma-GTP (3 h): 1.2 IU/L
- TERMINAL_BW (6 h): 211.7 g
- APTT (6 h): 18.9 s
- Bas (6 h): 0%
- Eos (6 h): 1%
- Fbg (6 h): 204.6 mg/dL
- Hb (6 h): 13.5 g/dL
- Ht (6 h): 37.8%
- Lym (6 h): 75%
- MCH (6 h): 22.3 pg
- MCHC (6 h): 35.6%
- MCV (6 h): 62.7 fL
- Mono (6 h): 2.4%
- Neu (6 h): 18.4%
- PT (6 h): 12.8 s
- Plat (6 h): 109.6 x10_4/uL
- RBC (6 h): 604.4 x10_4/ul
- Ret (6 h): 7.4%
- WBC (6 h): 97.9 x10_2/uL
- KIDNEY_L (6 h): 1 g
- KIDNEY_R (6 h): 0.9 g
- KIDNEY_TOTAL (6 h): 1.9 g
- LIVER (6 h): 9 g
- A/G (6 h): 1.6
- ALP (6 h): 896.8 IU/L
- ALT (6 h): 32.8 IU/L
- AST (6 h): 66.8 IU/L
- BUN (6 h): 8.4 mg/dL
- CRE (6 h): 0.4 mg/dL
- Ca (6 h): 10.4 mg/dL
- Cl (6 h): 103.8 meq/L
- DBIL (6 h): 0.07 mg/dL
- GLC (6 h): 195 mg/dL
- IP (6 h): 9 mg/dL
- LDH (6 h): 177.2 IU/L
- Na (6 h): 140.8 meq/L
- PL (6 h): 131.2 mg/dL
- RALB (6 h): 3.2 g/dL
- TBIL (6 h): 0.1 mg/dL
- TC (6 h): 73.2 mg/dL
- TG (6 h): 46.2 mg/dL
- TP (6 h): 5.2 g/dL
- gamma-GTP (6 h): 2 IU/L
- TERMINAL_BW (9 h): 209.6 g
- APTT (9 h): 18.9 s
- Bas (9 h): 0%
- Eos (9 h): 0.8%
- Fbg (9 h): 225.4 mg/dL
- Hb (9 h): 13.4 g/dL
- Ht (9 h): 37.4%
- Lym (9 h): 76.8%
- MCH (9 h): 22.3 pg
- MCHC (9 h): 35.7%
- MCV (9 h): 62.3 fL
- Mono (9 h): 2.4%
- Neu (9 h): 19.2%
- PT (9 h): 12.1 s
- Plat (9 h): 117.6 x10_4/uL
- RBC (9 h): 601.6 x10_4/ul
- Ret (9 h): 7.2%
- WBC (9 h): 77.6 x10_2/uL
- KIDNEY_L (9 h): 0.9 g
- KIDNEY_R (9 h): 1 g
- KIDNEY_TOTAL (9 h): 1.9 g
- LIVER (9 h): 8.7 g
- A/G (9 h): 1.6
- ALP (9 h): 898 IU/L
- ALT (9 h): 26.6 IU/L
- AST (9 h): 59 IU/L
- BUN (9 h): 10 mg/dL
- CRE (9 h): 0.4 mg/dL
- Ca (9 h): 10.3 mg/dL
- Cl (9 h): 103.6 meq/L
- DBIL (9 h): 0.064 mg/dL
- GLC (9 h): 195.2 mg/dL
- IP (9 h): 8.8 mg/dL
- LDH (9 h): 125 IU/L
- Na (9 h): 140.2 meq/L
- PL (9 h): 130 mg/dL
- RALB (9 h): 3.3 g/dL
- TBIL (9 h): 0.1 mg/dL
- TC (9 h): 67.8 mg/dL
- TG (9 h): 47.6 mg/dL
- TP (9 h): 5.4 g/dL
- gamma-GTP (9 h): 0.6 IU/L
- TERMINAL_BW (24 h): 227 g
- APTT (24 h): 20.8 s
- Bas (24 h): 0%
- Eos (24 h): 1%
- Fbg (24 h): 225.8 mg/dL
- Hb (24 h): 13.4 g/dL
- Ht (24 h): 37.6%
- Lym (24 h): 78.2%
- MCH (24 h): 22.4 pg
- MCHC (24 h): 35.6%
- MCV (24 h): 63.1 fL
- Mono (24 h): 3.8%
- Neu (24 h): 15.6%
- PT (24 h): 12.1 s
- Plat (24 h): 114.2 x10_4/uL
- RBC (24 h): 596.2 x10_4/ul
- Ret (24 h): 6.6%
- WBC (24 h): 78.3 x10_2/uL
- KIDNEY_L (24 h): 1 g
- KIDNEY_R (24 h): 1 g
- KIDNEY_TOTAL (24 h): 2 g
- LIVER (24 h): 11 g
- A/G (24 h): 1.5
- ALP (24 h): 1146.8 IU/L
- ALT (24 h): 33.2 IU/L
- AST (24 h): 62.8 IU/L
- BUN (24 h): 13.2 mg/dL
- CRE (24 h): 0.4 mg/dL
- Ca (24 h): 10.5 mg/dL
- Cl (24 h): 103.6 meq/L
- DBIL (24 h): 0.074 mg/dL
- GLC (24 h): 194.2 mg/dL
- IP (24 h): 8 mg/dL
- LDH (24 h): 176.6 IU/L
- Na (24 h): 140.6 meq/L
- PL (24 h): 153 mg/dL
- RALB (24 h): 3.3 g/dL
- TBIL (24 h): 0.1 mg/dL
- TC (24 h): 82.8 mg/dL
- TG (24 h): 86.8 mg/dL
- TP (24 h): 5.6 g/dL
- gamma-GTP (24 h): 0.8 IU/L
